# Source: patent US9540384B2, “Pyrrolidino heterocycles” (Hoffmann-La Roche Inc., priority 2012, dated 2017)
# Where a name gives a salt, the structure may show the parent alone.
# Molecular target: human PDE10A full length (Homo sapiens (Human), UniProt Q9Y233)
# Experiment: human PDE10A full length Scintillation Proximity Assay (SPA)
# Format: biochemical
# Settings: PDE10A enzyme, 50 nM cGMP + 50 nM [3H]-cGMP, 20 minutes at room temperature
# Description: The following test was carried out in order to determine the activity of the compounds of the present invention. PDE10 activity of the compounds of the present invention was determined using a Scintillation Proximity Assay (SPA)-based method similar to the one previously described (Fawcett, L. et al., Proc Natl Acad Sci USA (2000) 97(7):3702-3707).
# The human PDE10A full length assay was performed in 96-well micro titer plates. The reaction mixture of 50 μl contained 20 mM HEPES pH=7.5/10 mM MgCl2/0.05 mg/ml BSA (Sigma cat. #A-7906), 50 nM cGMP (Sigma, cat. #G6129) and 50 nM [3H]-cGMP (GE Healthcare, cat. #TRK392 S.A. 13.2 Ci/mmol), 3.75 ng/well PDE10A enzyme (Enzo Life Science, Lausen, Switzerland cat #SE-534) with or without a specific test compound. A range of concentrations of the potential inhibitor was used to generate data for calculating the concentration of inhibitor resulting in 50% of the effect (e.g. IC50, the concentration of the competitor inhibiting PDE10A activity by 50%). Non-specific activity was tested without the enzyme. The reaction was initiated by the addition of the substrate solution (cGMP and [3H]-cGMP) and allowed to progress for 20 minutes at room temperature. The reaction was terminated by adding 25 μl of YSi-SPA scintillation beads (GE Healthcare, cat. #RPNQ0150) in 18 mM zinc sulphate solution (stop reagent). After 1 h under shaking, the plate was centrifuged one minute at 170 g to allow beads to settle. Afterwards, radioactive counts were measured on a Perkin Elmer TopCount Scintillation plate reader.
# Chain of human PDE10A full length (Q9Y233 other isoform, or with tags, fused parts or gaps): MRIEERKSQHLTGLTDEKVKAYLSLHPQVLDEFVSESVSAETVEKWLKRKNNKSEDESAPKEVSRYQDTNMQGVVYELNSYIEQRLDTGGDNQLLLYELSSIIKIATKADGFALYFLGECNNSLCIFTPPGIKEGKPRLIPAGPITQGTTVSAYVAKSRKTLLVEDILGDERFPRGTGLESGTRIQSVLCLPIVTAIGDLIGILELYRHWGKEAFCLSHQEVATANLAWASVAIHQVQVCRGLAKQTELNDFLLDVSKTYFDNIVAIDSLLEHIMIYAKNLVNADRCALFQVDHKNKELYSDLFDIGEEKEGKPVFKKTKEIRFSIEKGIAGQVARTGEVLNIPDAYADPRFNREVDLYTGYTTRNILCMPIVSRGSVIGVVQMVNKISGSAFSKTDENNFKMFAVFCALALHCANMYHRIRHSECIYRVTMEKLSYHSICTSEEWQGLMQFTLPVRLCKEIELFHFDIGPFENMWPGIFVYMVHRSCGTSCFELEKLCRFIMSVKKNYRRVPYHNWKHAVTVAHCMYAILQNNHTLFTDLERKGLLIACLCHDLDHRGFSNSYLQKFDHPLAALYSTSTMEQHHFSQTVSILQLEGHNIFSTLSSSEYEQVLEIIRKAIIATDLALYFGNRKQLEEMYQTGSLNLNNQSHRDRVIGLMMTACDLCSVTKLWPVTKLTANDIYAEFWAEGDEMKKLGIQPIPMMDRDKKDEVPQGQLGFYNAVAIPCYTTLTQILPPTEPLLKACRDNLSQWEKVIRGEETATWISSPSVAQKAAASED
row,IC50 [nM],SMILES
1,4060,"CNc1cccc(CCc2nc(-c3ccccc3)cn2C)n1 [Example 4, Methyl-{6-[2-(1-methyl-4-phenyl-1H-imidazol-2-yl)-ethyl]-pyridin-2-yl}-amine]"
2,1840,"Cn1cc(-c2ccccc2)nc1CCc1cccc(N2CCCC2)n1 [Example 6, 2-(2-(1-Methyl-4-phenyl-1H-imidazol-2-yl)ethyl)-6-(pyrrolidin-1-yl)pyridine]"
3,3140,"Cn1cc(-c2ccccc2)nc1CCc1cccc(N2CCOCC2)n1 [Example 7, 4-(6-(2-(1-Methyl-4-phenyl-1H-imidazol-2-yl)ethyl)pyridin-2-yl)morpholine]"
4,30,"Cc1nc2ccccc2nc1OCc1cccc(N2CCCC2)n1 [Example 9, 2-Methyl-3-((6-(pyrrolidin-1-yl)pyridin-2-yl)methoxy)quinoxaline]"
5,120,"Cc1nc2ccccc2nc1CCc1cccc(N2CCCC2)n1 [Example 11, 2-Methyl-3-[2-(6-pyrrolidin-1-yl-pyridin-2-yl)-ethyl]-quinoxaline]"
6,2000,"Cc1oc(-c2ccccc2)nc1CCc1cccc(N2CCCC2)n1 [Example 12, 2-[2-(5-Methyl-2-phenyl-oxazol-4-yl)-ethyl]-6-pyrrolidin-1-yl-pyridine]"
7,120,"Cn1cc(-c2ccccc2)nc1CCc1cncc(N2CCCN2)n1 [Example 14, 2-(2-(1-Methyl-4-phenyl-1H-imidazol-2-yl)ethyl)-6-(pyrazolidin-1-yl)pyrazine hydrochloride]"
8,1680,"Cc1nc2ccccc2nc1OCc1cccc(N2CCCCC2)n1 [Example 15, 2-Methyl-3-((6-(piperidin-1-yl)pyridin-2-yl)methoxy)quinoxaline]"
9,46,"c1cc(CCc2nc(N3CCOCC3)c3ccccc3n2)nc(N2CCCC2)c1 [Example 21, 4-(2-(2-(6-(Pyrrolidin-1-yl)pyridin-2-yl)ethyl)quinazolin-4-yl)morpholine]"
10,2300,"CC1CCC(C)N1c1cccc(CCc2nc(N(C)C)c3ccccc3n2)n1 (centres unmarked) [Example 30, 2-(2-(6-(2,5-Dimethylpyrrolidin-1-yl)pyridin-2-yl)ethyl)-N,N-dimethylquinazolin-4-amine]"
11,480,"CN(C)c1nc(CCc2cccc(N3CCC(O)C3)n2)nc2ccccc12 (centres unmarked) [Example 32, 1-(6-(2-(4-(Dimethylamino)quinazolin-2-yl)ethyl)pyridin-2-yl)-pyrrolidin-3-ol]"

# The remaining lines, values behind:
row,SMILES,IC50 [nM]
1,"Cc1cc(N2CCCC2)nc(/C=C/c2ccc3ccccc3n2)n1 [Example 1, (E)-2-[2-(4-Methyl-6-pyrrolidin-1-yl-pyrimidin-2-yl)-vinyl]-quinoline]",530
2,"COc1c(C)cnc(/C=C/c2cccc(N3CCOCC3)n2)c1C [Example 2, (E)-4-(6-(2-(4-Methoxy-3,5-dimethylpyridin-2-yl)vinyl)pyridin-2-yl)morpholine]",8000
3,"COc1c(C)cnc(/C=C/c2cccc(N3CCCC3)n2)c1C [Example 3, (E)-4-methoxy-3,5-dimethyl-2-(2-(6-(pyrrolidin-1-yl)pyridin-2-yl)vinyl)pyridine]",790
4,"COc1c(C)cnc(CCc2cccc(N3CCCC3)n2)c1C [Example 5, 4-Methoxy-3,5-dimethyl-2-(2-(6-(pyrrolidin-1-yl)pyridin-2-yl)ethyl)pyridine]",610
5,"Cc1nc(C)c(CCc2cccc(N3CCCC3)n2)nc1C [Example 8, 2,3,5-Trimethyl-6-(2-(6-(pyrrolidin-1-yl)pyridin-2-yl)ethyl)pyrazine]",600
6,"Cc1nc2ccccc2nc1/C=C/c1cccc(N2CCCC2)n1 [Example 10, 2-Methyl-3-[(E)-2-(6-pyrrolidin-1-yl-pyridin-2-yl)-vinyl]-quinoxaline]",90
7,"Clc1ccc2nc(OCc3cccc(N4CCCC4)n3)nc(N3CCOCC3)c2c1 [Example 13, 4-(6-Chloro-2-((6-(pyrrolidin-1-yl)pyridin-2-yl)methoxy)quinazolin-4-yl)morpholine]",2.5
8,"c1cc(COc2nc(N3CCOCC3)c3ccccc3n2)nc(N2CCCC2)c1 [Example 16, 4-(2-((6-(Pyrrolidin-1-yl)pyridin-2-yl)methoxy)quinazolin-4-yl)morpholine]",50
9,"CN(C)c1nc(OCc2cccc(N3CCCC3)n2)nc2ccc(Cl)cc12 [Example 17, 6-Chloro-N,N-dimethyl-2-((6-(pyrrolidin-1-yl)pyridin-2-yl)methoxy)quinazolin-4-amine]",7
10,"Cn1ncc2c(N3CCOCC3)nc(OCc3cccc(N4CCCC4)n3)nc21 [Example 18, 4-(1-Methyl-6-((6-(pyrrolidin-1-yl)pyridin-2-yl)methoxy)-1H-pyrazolo-[3,4-d]pyrimidin-4-yl)morpholine]",276
11,"Clc1ccc2nc(/C=C/c3cccc(N4CCCC4)n3)nc(N3CCOCC3)c2c1 [Example 19, (E)-4-(6-Chloro-2-(2-(6-(pyrrolidin-1-yl)pyridin-2-yl)vinyl)quinazolin-4-yl)morpholine]",6.3
12,"Clc1ccc2nc(CCc3cccc(N4CCCC4)n3)nc(N3CCOCC3)c2c1 [Example 20, 4-(6-Chloro-2-(2-(6-(pyrrolidin-1-yl)pyridin-2-yl)ethyl)quinazolin-4-yl)morpholine]",3.3
13,"c1cc(COc2cc(N3CCOCC3)nc(-c3ccn[nH]3)n2)nc(N2CCCC2)c1 [Example 23, 4-[2-(2H-Pyrazol-3-yl)-6-(6-pyrrolidin-1-yl-pyridin-2-ylmethoxy)-pyrimidin-4-yl]-morpholine]",1080
14,"c1cncc(-c2nc(OCc3cccc(N4CCCC4)n3)cc(N3CCOCC3)n2)c1 [Example 24, 4-(2-(Pyridin-3-yl)-6-((6-(pyrrolidin-1-yl)pyridin-2-yl)methoxy)-pyrimidin-4-yl)morpholine]",1630
15,"CN(C)c1nc(/C=C/c2cccc(N3CCC(CO)C3)n2)nc2ccc(Cl)cc12 (centres unmarked) [Example 25, (E)-(1-(6-(2-(6-Chloro-4-(dimethylamino)quinazolin-2-yl)vinyl)pyridin-2-yl)pyrrolidin-3-yl)methanol]",220
16,"O=c1[nH]c(CCc2cccc(N3CCCC3)n2)nc2cccc(Cl)c12 [Example 26, 5-Chloro-2-(2-(6-(pyrrolidin-1-yl)pyridin-2-yl)ethyl)quinazolin-4(3H)-one]",400
17,"COc1c(Cl)ccc2nc(CCc3cccc(N4CCCC4)n3)[nH]c(=O)c12 [Example 27, 6-Chloro-5-methoxy-2-(2-(6-(pyrrolidin-1-yl)pyridin-2-yl)ethyl)-quinazolin-4(3H)-one]",470
18,"Cc1nc2nc(CCc3cccc(N4CCCC4)n3)[nH]c(=O)c2n1C [Example 28, 7,8-Dimethyl-2-(2-(6-(pyrrolidin-1-yl)pyridin-2-yl)ethyl)-1H-purin-6(7H)-one]",2730
19,"O=c1[nH]c(CCc2cccc(N3CCCC3)n2)nc2ccc(Cl)cc12 [Example 29, 6-Chloro-2-(2-(6-(pyrrolidin-1-yl)pyridin-2-yl)ethyl)quinazolin-4(3H)-one]",100
20,"CN(C)c1nc(CCc2cccc(N3CCC(O)C3)n2)nc2ccc(Cl)cc12 (centres unmarked) [Example 31, 1-(6-(2-(6-Chloro-4-(dimethylamino)quinazolin-2-yl)ethyl)pyridin-2-yl)pyrrolidin-3-ol]",770
21,"CN(C)c1nc(CCc2cccc(N3CCC(CO)C3)n2)nc2ccc(Cl)cc12 (centres unmarked) [Example 33, (1-(6-(2-(6-Chloro-4-(dimethylamino)quinazolin-2-yl)ethyl)pyridin-2-yl)pyrrolidin-3-yl)methanol]",150
